≈ marks a conversion by molar mass, not a printed value. Where two headings read alike, the source gives them in different places.
Legend:
Test in all cases: microbe, parasite or virus in culture
[1] = tested on: rRMP (Rifampicin-resistant TB strain); assay type: cell-based, Mycobacterium tuberculosis
[2] = tested on: rINH (Isoniazid-resistant TB strain); assay type: cell-based, Mycobacterium tuberculosis
[3] = tested on: rKM (Kanamycin-resistant TB strain); assay type: cell-based, Mycobacterium tuberculosis
[4] = tested on: rSM (Streptomycin-resistant TB strain); assay type: cell-based, Mycobacterium tuberculosis
[5] = tested on: MDR-TB strain resistant to HRESP; assay type: cell-based; settings: Mycobacterium tuberculosis
[6] = tested on: MDR-TB strain resistant to HREZSP; assay type: cell-based; settings: Mycobacterium tuberculosis
[7] = tested on: MDR-TB strain resistant to HCPTh; assay type: cell-based; settings: Mycobacterium tuberculosis
[8] = tested on: MDR-TB strain resistant to HREKP; assay type: cell-based; settings: Mycobacterium tuberculosis
[9] = tested on: MDR-TB strain resistant to HRERb* (column 5); assay type: cell-based; settings: Mycobacterium tuberculosis
[10] = tested on: MDR-TB strain resistant to HREZSKPTh; assay type: cell-based; settings: Mycobacterium tuberculosis
[11] = tested on: MDR-TB strain resistant to HRERb* (column 7); assay type: cell-based; settings: Mycobacterium tuberculosis
[12] = tested on: MDR-TB strain resistant to HRERb* (column 8); assay type: cell-based; settings: Mycobacterium tuberculosis
[13] = tested on: MDR-TB strain resistant to HREZRbTh; assay type: cell-based; settings: Mycobacterium tuberculosis
[14] = tested on: extreme drug-resistant TB strain HRESPOCTh; assay type: cell-based; settings: Mycobacterium tuberculosis
[15] = tested on: extreme drug-resistant TB strain HREPKOTh; assay type: cell-based; settings: Mycobacterium tuberculosis
[16] = tested on: extreme drug-resistant TB strain HRESPO; assay type: cell-based; settings: Mycobacterium tuberculosis
[17] = single drug resistant strain rRMP
[18] = single drug resistant strain rINH
[19] = single drug resistant strain rKM

With `NNC(=O)c1ccncc1` [INH, Isoniazid, reference compound] the MIC90 ([1]; Mycobacterium tuberculosis) was 0.23 µM (≈ 0.0315 µg/mL) and the MIC90 ([2]; Mycobacterium tuberculosis) was > 8 µM.
With `COc1c(N2C[C@@H]3CCCN[C@@H]3C2)c(F)cc2c(=O)c(C(=O)O)cn(C3CC3)c12` [Moxifloxacin, reference compound] the MIC90 ([1]; Mycobacterium tuberculosis) was 0.1 µM (≈ 0.0401 µg/mL), the MIC90 ([2]; Mycobacterium tuberculosis) was 0.12 µM (≈ 0.0482 µg/mL) and the MIC90 ([3]; Mycobacterium tuberculosis) was 0.24 µM (≈ 0.0963 µg/mL). For the same molecule, the MIC90 ([4]; Mycobacterium tuberculosis) was 0.15 µM (≈ 0.0602 µg/mL).
For `Cc1ccn2c(C(=O)NCc3ccccc3)c(C)nc2c1` [ND-8454, N-benzyl-2,7-dimethylimidazo[1,2-a]pyridine-3-carboxamide], the MIC90 ([1]; Mycobacterium tuberculosis) was 0.28 µM (≈ 0.0782 µg/mL), the MIC90 ([2]; Mycobacterium tuberculosis) was 0.33 µM (≈ 0.0922 µg/mL) and the MIC90 ([3]; Mycobacterium tuberculosis) was 1.07 µM (≈ 0.299 µg/mL). It also gave an MIC90 ([4]; Mycobacterium tuberculosis) of 1.02 µM (≈ 0.285 µg/mL), an MIC90 [5] of 0.625 µg/mL (≈ 2.24 µM) and an MIC90 [6] of 0.312 µg/mL (≈ 1.12 µM). For the same molecule, the MIC90 [7] was 0.313 µg/mL (≈ 1.12 µM), the MIC90 [8] was 0.078 µg/mL (≈ 0.279 µM) and the MIC90 [9] was 0.039 µg/mL (≈ 0.14 µM). The MIC90 [10] was 0.019 µg/mL (≈ 0.068 µM), the MIC90 [11] was 0.039 µg/mL (≈ 0.14 µM) and the MIC90 [12] was 0.078 µg/mL (≈ 0.279 µM). It also gave an MIC90 [13] of 0.039 µg/mL (≈ 0.14 µM), an MIC90 [14] of 0.02 µg/mL (≈ 0.0716 µM) and an MIC90 [15] of 0.02 µg/mL (≈ 0.0716 µM). For the same molecule, the MIC90 [16] was 0.039 µg/mL (≈ 0.14 µM).
Work on `Cc1ccn2c(C(=O)NCc3cccc(F)c3)c(C)nc2c1` [ND-9361] yielded an MIC90 [5] of 0.078 µg/mL (≈ 0.262 µM), an MIC90 [6] of 0.019 µg/mL (≈ 0.0639 µM) and an MIC90 [8] of 0.078 µg/mL (≈ 0.262 µM). The MIC90 [9] was 0.039 µg/mL (≈ 0.131 µM), the MIC90 [10] was 0.019 µg/mL (≈ 0.0639 µM) and the MIC90 [11] was 0.01 µg/mL (≈ 0.0336 µM). For the same molecule, the MIC90 [12] was 0.078 µg/mL (≈ 0.262 µM), the MIC90 [13] was 0.019 µg/mL (≈ 0.0639 µM) and the MIC90 [14] was 0.02 µg/mL (≈ 0.0673 µM). For the same molecule, the MIC90 [15] was 0.01 µg/mL (≈ 0.0336 µM) and the MIC90 [16] was 0.01 µg/mL (≈ 0.0336 µM).
`Cc1ccn2c(C(=O)NCc3ccc(Oc4ccc(F)cc4)cc3)c(C)nc2c1` [ND-9758] was tested, and the MIC90 [1, 17] was <0.002 µM, the MIC90 [2, 18] was 0.003 µM (≈ 0.00117 µg/mL) and the MIC90 [3, 19] was 0.01 µM (≈ 0.00389 µg/mL). The MIC90 [4] was 0.01 µM (≈ 0.00389 µg/mL).
`Cc1ccn2c(C(=O)NCc3cccc(OC(C)C)c3)c(C)nc2c1` [ND-9872] showed an MIC90 [1, 17] of 0.23 µM (≈ 0.0776 µg/mL), an MIC90 [2, 18] of 0.28 µM (≈ 0.0945 µg/mL) and an MIC90 [3, 19] of 0.89 µM (≈ 0.3 µg/mL). The MIC90 [4] was 0.87 µM (≈ 0.294 µg/mL).
In the case of `Cc1ccn2c(C(=O)NCc3ncc(C(F)(F)F)cc3Cl)c(C)nc2c1` [ND-9902], the MIC90 [1, 17] is reported as 0.74 µM (≈ 0.283 µg/mL), the MIC90 [2, 18] is reported as 1.10 µM (≈ 0.421 µg/mL) and the MIC90 [3, 19] is reported as 2.96 µM (≈ 1.13 µg/mL). For the same molecule, the MIC90 [4] was 2.95 µM (≈ 1.13 µg/mL).
Work on `Cc1ccc2nc(C)c(C(=O)NCc3ccc(S(C)(=O)=O)cc3)n2c1` [ND-9965] yielded an MIC90 [1, 17] of 0.54 µM (≈ 0.193 µg/mL), an MIC90 [2, 18] of 0.57 µM (≈ 0.204 µg/mL) and an MIC90 [3, 19] of 1.98 µM (≈ 0.708 µg/mL). The MIC90 [4] was 2.31 µM (≈ 0.826 µg/mL).
`CO[C@H]1/C=C/O[C@@]2(C)Oc3c(C)c(O)c4c(O)c(c(/C=N/N5CCN(C)CC5)c(O)c4c3C2=O)NC(=O)/C(C)=C\C=C\[C@H](C)[C@H](O)[C@@H](C)[C@@H](O)[C@@H](C)[C@H](OC(C)=O)[C@@H]1C` [RMP, Rifampicin, reference compound] was tested, and the MIC90 ([1]; Mycobacterium tuberculosis) was > 1 µM and the MIC90 ([2]; Mycobacterium tuberculosis) was 0.01 µM (≈ 0.00823 µg/mL).

— US9309238B2, “Imidazo [1,2-a]pyridine compounds, synthesis thereof, and methods of using same” (priority 2009, dated 2016)
